# The supplement of paper PMC10307832
# How the values were obtained:
# Assay in all cases: relative viability (nuclei count vs DMSO), 5 days (fraction); higher = more cells survive
# CAP-232 + Lapatinib = compound: C[C@H]([C@@H](C(=O)N)NC(=O)[C@@H]1CSSC[C@@H](C(=O)N[C@H](C(=O)N[C@@H](C(=O)N[C@H](C(=O)N1)CCCCN)CC2=CNC3=CC=CC=C32)CC4=CC=C(C=C4)O)NC(=O)[C@@H](CC5=CC=CC=C5)N)O [CAP-232] + CS(=O)(=O)CCNCc1ccc(-c2ccc3ncnc(Nc4ccc(OCc5cccc(F)c5)c(Cl)c4)c3c2)o1 [Lapatinib] (partner 2 µM)
# Procedure, shortened: (§1)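 Nuclei were stained with Hoechst during a one-step fixation (final 0.05% Triton X-100, 1% formaldehyde, 1 ug/ml Hoechst) carried out 5 days after dosing, then counted on 4× images. The cells, lung cancer lines in 1536-well plates, had been dosed by pin tool the day after seeding with one drug alone or a fixed anchor-drug dose plus five library-drug doses (not always all listed) in √10 steps. Relative viability is the nuclei count in treated wells divided by that in vehicle wells, and each value is the median of duplicate plates.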
# CAP-232 + Pemetrexed = compound: C[C@H]([C@@H](C(=O)N)NC(=O)[C@@H]1CSSC[C@@H](C(=O)N[C@H](C(=O)N[C@@H](C(=O)N[C@H](C(=O)N1)CCCCN)CC2=CNC3=CC=CC=C32)CC4=CC=C(C=C4)O)NC(=O)[C@@H](CC5=CC=CC=C5)N)O [CAP-232] + Nc1nc2[nH]cc(CCc3ccc(C(=O)N[C@@H](CCC(=O)O)C(=O)O)cc3)c2c(=O)[nH]1 [Pemetrexed] (partner 0.2 µM)
# Procedure, shortened: as §1
# CAP-232 + Olaparib = compound: C[C@H]([C@@H](C(=O)N)NC(=O)[C@@H]1CSSC[C@@H](C(=O)N[C@H](C(=O)N[C@@H](C(=O)N[C@H](C(=O)N1)CCCCN)CC2=CNC3=CC=CC=C32)CC4=CC=C(C=C4)O)NC(=O)[C@@H](CC5=CC=CC=C5)N)O [CAP-232] + O=C(c1cc(Cc2n[nH]c(=O)c3ccccc23)ccc1F)N1CCN(C(=O)C2CC2)CC1 [Olaparib] (partner 8 µM)
# Procedure, shortened: as §1
# CAP-232 + Phenformin = compound: C[C@H]([C@@H](C(=O)N)NC(=O)[C@@H]1CSSC[C@@H](C(=O)N[C@H](C(=O)N[C@@H](C(=O)N[C@H](C(=O)N1)CCCCN)CC2=CNC3=CC=CC=C32)CC4=CC=C(C=C4)O)NC(=O)[C@@H](CC5=CC=CC=C5)N)O [CAP-232] + N=C(N)NC(=N)NCCc1ccccc1 [Phenformin] (partner 250 µM)
# Procedure, shortened: as §1
# CAP-232 + Palbociclib = compound: C[C@H]([C@@H](C(=O)N)NC(=O)[C@@H]1CSSC[C@@H](C(=O)N[C@H](C(=O)N[C@@H](C(=O)N[C@H](C(=O)N1)CCCCN)CC2=CNC3=CC=CC=C32)CC4=CC=C(C=C4)O)NC(=O)[C@@H](CC5=CC=CC=C5)N)O [CAP-232] + CC(=O)c1c(C)c2cnc(Nc3ccc(N4CCNCC4)cn3)nc2n(C2CCCC2)c1=O [Palbociclib] (partner 0.5 µM)
# Procedure, shortened: as §1
Cell Line,relative viability (CAP-232 + Lapatinib; first compound 0.4 µM),relative viability (CAP-232 + Lapatinib; first compound 1.265 µM),relative viability (CAP-232 + Lapatinib; first compound 4 µM),relative viability (CAP-232 + Lapatinib; first compound 12.65 µM),relative viability (CAP-232 + Pemetrexed; first compound 0.4 µM),relative viability (CAP-232 + Pemetrexed; first compound 1.265 µM),relative viability (CAP-232 + Pemetrexed; first compound 4 µM),relative viability (CAP-232 + Pemetrexed; first compound 12.65 µM),relative viability (CAP-232 + Olaparib; first compound 0.4 µM),relative viability (CAP-232 + Olaparib; first compound 1.265 µM),relative viability (CAP-232 + Olaparib; first compound 4 µM),relative viability (CAP-232 + Olaparib; first compound 12.65 µM),relative viability (CAP-232 + Phenformin; first compound 0.4 µM),relative viability (CAP-232 + Phenformin; first compound 1.265 µM),relative viability (CAP-232 + Phenformin; first compound 4 µM),relative viability (CAP-232 + Phenformin; first compound 12.65 µM),relative viability (CAP-232 + Palbociclib; first compound 0.4 µM),relative viability (CAP-232 + Palbociclib; first compound 1.265 µM),relative viability (CAP-232 + Palbociclib; first compound 4 µM),relative viability (CAP-232 + Palbociclib; first compound 12.65 µM)
NCI-H2023,0.743,0.761,0.797,0.38,0.246,0.257,0.178,0.0965,0.485,0.498,0.497,0.326,0.448,0.388,0.417,0.188,0.377,0.353,0.346,0.157
NCI-H2085,0.833,0.789,0.732,0.878,0.941,0.796,0.899,0.918,0.825,0.764,0.743,0.771,0.713,0.703,0.741,0.688,0.465,0.495,0.447,0.5
NCI-H2087,1.08,1.02,1.03,0.519,0.662,0.655,0.68,0.604,0.646,0.669,0.697,0.312,0.435,0.419,0.436,0.321,0.214,0.225,0.218,0.226
NCI-H2126,0.762,0.694,0.895,0.797,0.703,0.696,0.706,0.654,0.899,0.866,0.992,0.914,0.525,0.5,0.51,0.56,0.345,0.315,0.341,0.359
NCI-H2170,0.274,0.281,0.255,0.272,0.247,0.261,0.267,0.244,0.622,0.588,0.738,0.636,0.409,0.422,0.438,0.42,0.358,0.38,0.429,0.424
NCI-H2228,1.32,0.907,1.66,0.904,0.447,0.364,0.335,0.358,0.766,0.73,0.92,0.361,0.38,0.253,0.409,0.221,1.06,0.803,0.971,0.632
NCI-H2347,0.944,0.898,0.931,0.864,0.432,0.436,0.457,0.418,0.651,0.528,0.606,0.598,0.281,0.305,0.427,0.296,0.453,0.462,0.412,0.423
NCI-H2405,1.03,0.99,1.12,0.722,1.11,1.1,0.986,0.512,0.836,0.957,0.831,0.53,0.377,0.356,0.37,0.317,0.553,0.563,0.536,0.369
NCI-H3122,1,1.09,1,1.05,0.2,0.226,0.201,0.194,0.664,0.656,0.847,0.546,0.404,0.388,0.395,0.335,0.178,0.181,0.187,0.214
PC-3 [JPC-3],0.503,0.444,0.454,0.461,1.63,1.05,0.992,0.888,1.16,1.21,1.2,1.08,0.494,0.461,0.459,0.453,0.583,0.542,0.545,0.555
PC-14,0.34,0.31,0.409,0.262,0.121,0.123,0.137,0.127,0.265,0.264,0.213,0.239,0.577,0.56,0.659,0.386,0.675,0.507,0.538,0.412
RERF-LC-KJ,0.96,0.859,1.03,0.861,0.499,0.534,0.441,0.407,0.98,0.893,1.03,0.721,0.493,0.4,0.388,0.315,1.43,1.12,0.908,0.747
SK-LU-1,0.869,0.809,0.8,0.979,0.916,0.996,1.03,0.658,0.388,0.44,0.412,0.408,0.503,0.553,0.67,0.482,0.375,0.398,0.405,0.364
SK-MES-1,0.534,0.469,0.419,0.473,1.04,0.95,0.961,0.608,0.747,0.718,0.762,0.607,0.684,0.663,0.693,0.521,0.324,0.292,0.278,0.258
SW 1573,1.06,1.12,1.21,1.13,0.801,0.879,0.789,0.103,0.395,0.416,0.469,0.356,0.337,0.413,0.421,0.163,0.313,0.392,0.406,0.201
UMC-11,1.02,0.907,1.14,1.08,0.824,0.843,0.821,0.613,0.358,0.339,0.374,0.248,0.309,0.28,0.332,0.295,0.346,0.349,0.311,0.341
